± gives the standard deviation of the averaged measurements.
Columns and labels:
Assay in all cases: level (log10 ratio to DMSO vehicle control); higher = higher biomarker level / cell amount than vehicle control
Settings in all cases: in DMSO
[1] = compound: CC(C)(C)C(=O)CC(=O)C(F)(F)C(F)(F)C(F)(F)F [(Heptafluorobutanoyl)pivaloylmethane]
Method: (§1)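 BioMAP Diversity Plus panel of 12 human primary cell co-culture systems (3C, 4H, LPS, SAg, BT, BF4T, BE3C, CASM3C, HDF3CGF, KF3CT, MyoF, Mphg). Compounds were added 1 h before stimulation and left for 24 h (MyoF 48 h; BT 72 h for soluble read-outs or 6 d for IgG). Biomarkers were read by ELISA, cytotoxicity by SRB, PBMC viability and proliferation by Alamar Blue. Each well value was divided by the mean of 8 DMSO control wells on the same plate and log10 transformed; duplicate blinded samples were tested at 4 concentrations.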

[2] = compound: O=C(O)CCC(F)(F)C(F)(F)C(F)(F)C(F)(F)C(F)(F)F [2H,2H,3H,3H-Perfluorooctanoic acid]
Method: as §1

[3] = compound: CNS(=O)(=O)C(F)(F)C(F)(F)C(F)(F)C(F)(F)C(F)(F)C(F)(F)C(F)(F)C(F)(F)F [N-Methylperfluorooctanesulfonamide]
Method: as §1

1-(Perfluorohexyl)octane = compound: CCCCCCCCC(F)(F)C(F)(F)C(F)(F)C(F)(F)C(F)(F)C(F)(F)F [1-(Perfluorohexyl)octane]
Method: as §1

Hexafluoroglutaric acid = compound: O=C(O)C(F)(F)C(F)(F)C(F)(F)C(=O)O [Hexafluoroglutaric acid]
Method: as §1

Perfluorooctanamidine = compound: N=C(N)C(F)(F)C(F)(F)C(F)(F)C(F)(F)C(F)(F)C(F)(F)C(F)(F)F [Perfluorooctanamidine]
Method: as §1

Perfluorooctanamide = compound: NC(=O)C(F)(F)C(F)(F)C(F)(F)C(F)(F)C(F)(F)C(F)(F)C(F)(F)F [Perfluorooctanamide]
Method: as §1

Q: Which “level (log10)” value ([1]; 6700 nM) does the source give for LPS:M-CSF here?
A: -0.004 ± 0.018

Q: What about the “level (log10)” value ([1]; 20000 nM) of the same test system?
A: 0 ± 0.0085

Q: What about the “level (log10)” value ([1]; 60000 nM) of the same test system?
A: -0.0125 ± 0.052

Q: And the “level (log10)” value ([2]; 6700 nM)?
A: -0.0035 ± 0.0035

Q: What about the “level (log10)” value ([2]; 20000 nM) of the same test system?
A: 0.008 ± 0.014

Q: What about the “level (log10)” value ([2]; 60000 nM) of the same test system?
A: 0.0035 ± 0.03

Q: And the “level (log10)” value ([3]; 6700 nM)?
A: -0.038 ± 0.018

Q: What about the “level (log10)” value ([3]; 20000 nM) of the same test system?
A: -0.0125 ± 0.011

Q: What about the “level (log10)” value ([3]; 60000 nM) of the same test system?
A: -0.017 ± 0.013

Q: What about the “level (log10)” value (1-(Perfluorohexyl)octane; 6700 nM) of the same test system?
A: -0.0065 ± 0.021

Q: And the “level (log10)” value (1-(Perfluorohexyl)octane; 20000 nM)?
A: 0.0235 ± 0.037

Q: And the “level (log10)” value (Hexafluoroglutaric acid; 6700 nM)?
A: 0.024 ± 0.047

Q: What about the “level (log10)” value (Hexafluoroglutaric acid; 20000 nM) of the same test system?
A: -0.019 ± 0.028

Q: What about the “level (log10)” value (Hexafluoroglutaric acid; 60000 nM) of the same test system?
A: -0.034 ± 0.051

Q: And the “level (log10)” value (Perfluorooctanamidine; 6700 nM)?
A: -0.0045 ± 0.0078

Q: And the “level (log10)” value (Perfluorooctanamidine; 20000 nM)?
A: -0.011 ± 0.03

Q: What about the “level (log10)” value (Perfluorooctanamidine; 60000 nM) of the same test system?
A: -0.068

Q: And the “level (log10)” value (Perfluorooctanamide; 6700 nM)?
A: -0.0005 ± 0.022

Q: And the “level (log10)” value (Perfluorooctanamide; 20000 nM)?
A: -0.0205 ± 0.013

Q: And the “level (log10)” value (Perfluorooctanamide; 60000 nM)?
A: -0.067 ± 0.0085

Q: What does the source list for LPS:SRB?
A: level (log10) ([1]; 6700 nM): -0.006; level (log10) ([1]; 20000 nM): -0.0095 ± 0.0021; level (log10) ([1]; 60000 nM): -0.028 ± 0.0099; level (log10) ([2]; 6700 nM): -0.01 ± 0.0014; level (log10) ([2]; 20000 nM): -0.0115 ± 0.0035; level (log10) ([2]; 60000 nM): -0.0035 ± 0.0064; level (log10) ([3]; 6700 nM): -0.0005 ± 0.00071; level (log10) ([3]; 20000 nM): -0.03 ± 0.0042; level (log10) ([3]; 60000 nM): -0.0625 ± 0.039; level (log10) (1-(Perfluorohexyl)octane; 6700 nM): 0.0035 ± 0.0078; level (log10) (1-(Perfluorohexyl)octane; 20000 nM): 0.0035 ± 0.011; level (log10) (Hexafluoroglutaric acid; 6700 nM): -0.0025 ± 0.011; level (log10) (Hexafluoroglutaric acid; 20000 nM): -0.0065 ± 0.016; level (log10) (Hexafluoroglutaric acid; 60000 nM): 0.01 ± 0.025; level (log10) (Perfluorooctanamidine; 6700 nM): -0.005 ± 0.0085; level (log10) (Perfluorooctanamidine; 20000 nM): 0.006 ± 0.011; level (log10) (Perfluorooctanamidine; 60000 nM): -0.035; level (log10) (Perfluorooctanamide; 6700 nM): 0.006 ± 0.013; level (log10) (Perfluorooctanamide; 20000 nM): 0.001 ± 0.0099; level (log10) (Perfluorooctanamide; 60000 nM): -0.0015 ± 0.011

Q: How did the “level (log10)” value ([1]; 6700 nM) turn out when LPS:sPGE2 was run?
A: 0.058 ± 0.013

Q: And the “level (log10)” value ([1]; 20000 nM)?
A: 0.04 ± 0.018

Q: What about the “level (log10)” value ([1]; 60000 nM) of the same test system?
A: 0.181 ± 0.023

Q: What about the “level (log10)” value ([2]; 6700 nM) of the same test system?
A: -0.0095 ± 0.033

Q: What about the “level (log10)” value ([2]; 20000 nM) of the same test system?
A: -0.08 ± 0.0014

Q: What about the “level (log10)” value ([2]; 60000 nM) of the same test system?
A: -0.111 ± 0.049

Q: And the “level (log10)” value ([3]; 6700 nM)?
A: -0.011 ± 0.0028

Q: And the “level (log10)” value ([3]; 20000 nM)?
A: 0.038 ± 0.0028

Q: And the “level (log10)” value ([3]; 60000 nM)?
A: 0.0305 ± 0.032

Q: What about the “level (log10)” value (1-(Perfluorohexyl)octane; 6700 nM) of the same test system?
A: 0.011 ± 0.018

Q: And the “level (log10)” value (1-(Perfluorohexyl)octane; 20000 nM)?
A: 0.02 ± 0.0042

Q: And the “level (log10)” value (Hexafluoroglutaric acid; 6700 nM)?
A: -0.0265 ± 0.028

Q: What about the “level (log10)” value (Hexafluoroglutaric acid; 20000 nM) of the same test system?
A: -0.039 ± 0.031

Q: What about the “level (log10)” value (Hexafluoroglutaric acid; 60000 nM) of the same test system?
A: -0.0185 ± 0.069

Q: What about the “level (log10)” value (Perfluorooctanamidine; 6700 nM) of the same test system?
A: -0.019 ± 0.031

Q: What about the “level (log10)” value (Perfluorooctanamidine; 20000 nM) of the same test system?
A: -0.078 ± 0.031

Q: And the “level (log10)” value (Perfluorooctanamidine; 60000 nM)?
A: -0.06

Q: And the “level (log10)” value (Perfluorooctanamide; 6700 nM)?
A: 0.019 ± 0.035

Q: What about the “level (log10)” value (Perfluorooctanamide; 20000 nM) of the same test system?
A: 0.0225 ± 0.025

Q: What about the “level (log10)” value (Perfluorooctanamide; 60000 nM) of the same test system?
A: 0.0545 ± 0.036

Q: LPS:sTNF-alpha was tested. Which “level (log10)” value ([1]; 6700 nM) did it give?
A: -0.001 ± 0.0014

Q: What about the “level (log10)” value ([1]; 20000 nM) of the same test system?
A: 0.0195 ± 0.0064

Q: And the “level (log10)” value ([1]; 60000 nM)?
A: 0.07 ± 0.014

Q: What about the “level (log10)” value ([2]; 6700 nM) of the same test system?
A: -0.017 ± 0.0014

Q: And the “level (log10)” value ([2]; 20000 nM)?
A: -0.0165 ± 0.005

Q: What about the “level (log10)” value ([2]; 60000 nM) of the same test system?
A: -0.014 ± 0.0085

Q: What about the “level (log10)” value ([3]; 6700 nM) of the same test system?
A: 0.0045 ± 0.073

Q: And the “level (log10)” value ([3]; 20000 nM)?
A: -0.012 ± 0.1

Q: What about the “level (log10)” value ([3]; 60000 nM) of the same test system?
A: 0.0085 ± 0.13

Q: And the “level (log10)” value (1-(Perfluorohexyl)octane; 6700 nM)?
A: 0.0005 ± 0.0064

Q: And the “level (log10)” value (1-(Perfluorohexyl)octane; 20000 nM)?
A: -0.0015 ± 0.013

Q: What about the “level (log10)” value (Hexafluoroglutaric acid; 6700 nM) of the same test system?
A: 0.0045 ± 0.026

Q: And the “level (log10)” value (Hexafluoroglutaric acid; 20000 nM)?
A: -0.0025 ± 0.022

Q: And the “level (log10)” value (Hexafluoroglutaric acid; 60000 nM)?
A: 0.0035 ± 0.0064

Q: What about the “level (log10)” value (Perfluorooctanamidine; 6700 nM) of the same test system?
A: -0.0145 ± 0.071

Q: And the “level (log10)” value (Perfluorooctanamidine; 20000 nM)?
A: -0.095 ± 0.17

Q: And the “level (log10)” value (Perfluorooctanamidine; 60000 nM)?
A: -0.08

Q: What about the “level (log10)” value (Perfluorooctanamide; 6700 nM) of the same test system?
A: -0.036 ± 0.034

Q: What about the “level (log10)” value (Perfluorooctanamide; 20000 nM) of the same test system?
A: -0.025 ± 0.0085

Q: What about the “level (log10)” value (Perfluorooctanamide; 60000 nM) of the same test system?
A: -0.028 ± 0.0071
